These results are taken from US20250129047A1, “ISOQUINOLINE DERIVATIVES AS MUTANT EGFR MODULATORS AND USES THEREOF” (NEWAVE PHARMACEUTICAL INC., priority 2021, published 2025).

Holding throughout (conditions): apparent IC50; 1.0 mM ATP or ATP Km; FL-Peptide 22 substrate; 25° C.
The target of one test is T1, EGFR L858R (Homo sapiens, UniProt P00533, L858R).
T1 construct: purchased SignalChem E10-122BG
Put plainly: Biochemical EGFR inhibition assay (Caliper mobility shift), EGFR L858R. How it is done: (§1) Inhibitory effects of the compounds of the disclosure were measured in biochemical assays that measure the phosphorylation activity of EGFR enzyme phosphorylates 2.5 micromolar 5-FAM-EEPLYWSFPAKKK-CONFF peptide substrate (FL-Peptide 22, PerkinElmer, 760366) in the presence of adenosine-5′-triphosphate (ATP) and varying concentrations of the test compound in 100 mM 2-[4-(2-hydroxyethyl)piperazin-1-yl]ethanesulfonic acid (HEPES), pH 7.5, 10 mM MgCE. 0.015% Brij-35, 1 mM dithiothreitol (DTT), 1.0% dimehylsulfoxide (DMSO). Assays were performed at 1.0 mM ATP or at ATP Km of the EGFR enzymes. Reactions proceeded until between 10% to 20% total peptides were phosphorylated at room temperature (25° C.) and were terminated with 35 mM 2,2′,2″,2″-(ethane-1,2-diyldinitrilo)tetraacetic acid (EDTA). Product was detected using the Caliper mobility shift detection method where the phosphorylated peptide (product) and substrate were electrophoretically separated and measured. Percent activity was plotted against log concentration of compound and points to generate an apparent IC50. […]

The target in test [1] is T2, EGFR (d746-750) T790M C797S (Homo sapiens, UniProt P00533, C797S/DEL746-750/T790M).
T2 construct: purchased SignalChem E10-122UG
T2 sequence (P00533 with tags, fused parts or gaps DEL746-750/T790M/C797S limits assumed): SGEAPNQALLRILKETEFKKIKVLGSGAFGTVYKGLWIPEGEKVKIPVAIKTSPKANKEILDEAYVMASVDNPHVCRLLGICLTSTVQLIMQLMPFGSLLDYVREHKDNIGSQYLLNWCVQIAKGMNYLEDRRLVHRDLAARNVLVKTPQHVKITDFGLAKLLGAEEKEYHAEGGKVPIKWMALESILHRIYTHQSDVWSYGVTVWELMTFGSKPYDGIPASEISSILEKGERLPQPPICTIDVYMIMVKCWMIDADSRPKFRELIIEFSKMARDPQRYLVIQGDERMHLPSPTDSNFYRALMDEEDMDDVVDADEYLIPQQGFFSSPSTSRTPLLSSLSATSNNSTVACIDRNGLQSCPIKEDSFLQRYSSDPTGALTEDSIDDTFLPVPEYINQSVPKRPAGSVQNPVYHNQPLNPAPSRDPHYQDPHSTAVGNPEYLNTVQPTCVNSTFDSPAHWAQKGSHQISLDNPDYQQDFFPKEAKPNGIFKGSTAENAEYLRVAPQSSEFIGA
Put plainly: Biochemical EGFR inhibition assay (Caliper mobility shift), EGFR d746-750 T790M C797S. How it is done:
as §1

The next test deals with EGFR L858R T790M (Homo sapiens, UniProt P00533, L858R/T790M). Put plainly: Biochemical EGFR inhibition assay (Caliper mobility shift), EGFR L858R T790M. How it is done: as §1
Chain of EGFR L858R T790M (P00533 25-1210 T790M/L858R): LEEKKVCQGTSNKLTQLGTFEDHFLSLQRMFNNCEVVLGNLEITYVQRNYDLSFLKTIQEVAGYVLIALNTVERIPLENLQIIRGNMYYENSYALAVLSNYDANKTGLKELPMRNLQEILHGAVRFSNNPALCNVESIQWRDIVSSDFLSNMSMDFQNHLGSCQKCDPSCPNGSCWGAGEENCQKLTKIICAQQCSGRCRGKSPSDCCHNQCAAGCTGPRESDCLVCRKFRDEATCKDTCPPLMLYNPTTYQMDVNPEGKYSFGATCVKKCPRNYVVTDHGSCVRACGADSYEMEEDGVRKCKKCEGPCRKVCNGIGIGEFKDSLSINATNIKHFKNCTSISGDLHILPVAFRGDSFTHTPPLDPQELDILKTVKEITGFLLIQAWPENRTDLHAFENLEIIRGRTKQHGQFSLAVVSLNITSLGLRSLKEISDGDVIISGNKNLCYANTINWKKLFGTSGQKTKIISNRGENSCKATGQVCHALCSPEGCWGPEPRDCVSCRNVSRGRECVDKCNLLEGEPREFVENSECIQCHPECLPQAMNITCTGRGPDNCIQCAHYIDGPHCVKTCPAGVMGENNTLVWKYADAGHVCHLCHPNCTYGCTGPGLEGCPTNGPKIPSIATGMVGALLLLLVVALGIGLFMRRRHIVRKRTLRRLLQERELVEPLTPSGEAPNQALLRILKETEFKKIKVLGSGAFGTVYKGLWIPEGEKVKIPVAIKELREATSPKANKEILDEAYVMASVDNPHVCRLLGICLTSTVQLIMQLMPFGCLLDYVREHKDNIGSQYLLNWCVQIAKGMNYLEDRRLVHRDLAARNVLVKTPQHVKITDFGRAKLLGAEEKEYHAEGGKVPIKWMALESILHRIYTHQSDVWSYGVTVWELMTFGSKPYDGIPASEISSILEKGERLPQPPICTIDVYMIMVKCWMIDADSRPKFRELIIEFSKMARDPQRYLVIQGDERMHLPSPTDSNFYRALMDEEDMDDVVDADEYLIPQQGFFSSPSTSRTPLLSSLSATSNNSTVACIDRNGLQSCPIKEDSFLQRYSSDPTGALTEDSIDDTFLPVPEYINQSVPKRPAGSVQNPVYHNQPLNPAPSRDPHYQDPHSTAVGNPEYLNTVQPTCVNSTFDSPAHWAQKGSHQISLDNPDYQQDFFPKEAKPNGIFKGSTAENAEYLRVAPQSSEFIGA
In the next test the target is EGFR d746-750 T790M (Homo sapiens, UniProt P00533, DEL746-750/T790M). Put plainly: Biochemical EGFR inhibition assay (Caliper mobility shift), EGFR d746-750 T790M. The method, then: as §1
Chain of EGFR d746-750 T790M (P00533 with tags, fused parts or gaps DEL746-750/T790M limits assumed): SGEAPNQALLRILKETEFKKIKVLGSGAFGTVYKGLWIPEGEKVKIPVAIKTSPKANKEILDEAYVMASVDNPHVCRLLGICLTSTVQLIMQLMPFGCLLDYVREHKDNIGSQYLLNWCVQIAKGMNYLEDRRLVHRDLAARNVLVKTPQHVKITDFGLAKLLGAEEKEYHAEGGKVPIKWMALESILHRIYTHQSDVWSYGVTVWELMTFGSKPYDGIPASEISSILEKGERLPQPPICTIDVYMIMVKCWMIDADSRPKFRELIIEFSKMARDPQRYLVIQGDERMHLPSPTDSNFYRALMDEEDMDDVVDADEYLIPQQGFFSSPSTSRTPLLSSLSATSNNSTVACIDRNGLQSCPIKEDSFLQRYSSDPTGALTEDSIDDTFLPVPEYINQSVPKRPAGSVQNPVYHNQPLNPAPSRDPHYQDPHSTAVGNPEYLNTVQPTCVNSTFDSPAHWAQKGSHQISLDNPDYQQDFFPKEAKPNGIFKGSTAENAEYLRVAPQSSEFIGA
The next test deals with T3, EGFR (L858R T790M C797S) (Homo sapiens, UniProt P00533, C797S/L858R/T790M).
T3 construct: purchased SignalChem E10-122VG
T3 sequence (P00533 25-1210 T790M/C797S/L858R): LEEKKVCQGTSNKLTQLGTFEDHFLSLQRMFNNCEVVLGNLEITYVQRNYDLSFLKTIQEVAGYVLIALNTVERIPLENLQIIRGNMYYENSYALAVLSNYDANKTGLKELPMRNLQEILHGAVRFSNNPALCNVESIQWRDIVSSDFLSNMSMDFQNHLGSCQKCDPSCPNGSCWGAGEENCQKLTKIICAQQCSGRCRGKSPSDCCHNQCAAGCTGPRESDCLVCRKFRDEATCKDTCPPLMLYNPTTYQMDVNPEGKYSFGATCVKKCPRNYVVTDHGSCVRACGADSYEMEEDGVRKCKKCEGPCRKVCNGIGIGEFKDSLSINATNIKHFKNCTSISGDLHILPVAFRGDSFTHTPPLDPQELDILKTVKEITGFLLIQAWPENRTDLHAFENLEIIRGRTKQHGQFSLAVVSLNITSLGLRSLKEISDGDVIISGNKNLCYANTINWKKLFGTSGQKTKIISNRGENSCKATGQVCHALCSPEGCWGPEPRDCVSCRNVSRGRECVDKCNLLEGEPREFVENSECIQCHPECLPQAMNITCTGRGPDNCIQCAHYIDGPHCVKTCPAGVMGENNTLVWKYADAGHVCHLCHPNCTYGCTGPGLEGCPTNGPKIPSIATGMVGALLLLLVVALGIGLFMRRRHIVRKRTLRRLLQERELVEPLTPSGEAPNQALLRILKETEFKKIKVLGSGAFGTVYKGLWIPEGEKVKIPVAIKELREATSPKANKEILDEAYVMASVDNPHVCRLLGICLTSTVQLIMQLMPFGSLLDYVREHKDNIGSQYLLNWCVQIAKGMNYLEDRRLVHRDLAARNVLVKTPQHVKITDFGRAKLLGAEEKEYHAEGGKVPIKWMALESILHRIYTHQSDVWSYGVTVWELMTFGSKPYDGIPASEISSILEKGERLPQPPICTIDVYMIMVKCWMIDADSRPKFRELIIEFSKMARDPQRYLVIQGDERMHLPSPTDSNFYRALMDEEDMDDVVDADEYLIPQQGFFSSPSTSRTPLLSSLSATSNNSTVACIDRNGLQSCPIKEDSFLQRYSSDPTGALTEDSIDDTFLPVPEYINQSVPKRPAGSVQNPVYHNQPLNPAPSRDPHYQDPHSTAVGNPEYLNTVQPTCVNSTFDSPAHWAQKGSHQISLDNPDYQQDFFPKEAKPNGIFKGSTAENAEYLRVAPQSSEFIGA
Put plainly: Biochemical EGFR inhibition assay (Caliper mobility shift), EGFR L858R T790M C797S. How it is done: as §1

T1 sequence (P00533 25-1210 L858R): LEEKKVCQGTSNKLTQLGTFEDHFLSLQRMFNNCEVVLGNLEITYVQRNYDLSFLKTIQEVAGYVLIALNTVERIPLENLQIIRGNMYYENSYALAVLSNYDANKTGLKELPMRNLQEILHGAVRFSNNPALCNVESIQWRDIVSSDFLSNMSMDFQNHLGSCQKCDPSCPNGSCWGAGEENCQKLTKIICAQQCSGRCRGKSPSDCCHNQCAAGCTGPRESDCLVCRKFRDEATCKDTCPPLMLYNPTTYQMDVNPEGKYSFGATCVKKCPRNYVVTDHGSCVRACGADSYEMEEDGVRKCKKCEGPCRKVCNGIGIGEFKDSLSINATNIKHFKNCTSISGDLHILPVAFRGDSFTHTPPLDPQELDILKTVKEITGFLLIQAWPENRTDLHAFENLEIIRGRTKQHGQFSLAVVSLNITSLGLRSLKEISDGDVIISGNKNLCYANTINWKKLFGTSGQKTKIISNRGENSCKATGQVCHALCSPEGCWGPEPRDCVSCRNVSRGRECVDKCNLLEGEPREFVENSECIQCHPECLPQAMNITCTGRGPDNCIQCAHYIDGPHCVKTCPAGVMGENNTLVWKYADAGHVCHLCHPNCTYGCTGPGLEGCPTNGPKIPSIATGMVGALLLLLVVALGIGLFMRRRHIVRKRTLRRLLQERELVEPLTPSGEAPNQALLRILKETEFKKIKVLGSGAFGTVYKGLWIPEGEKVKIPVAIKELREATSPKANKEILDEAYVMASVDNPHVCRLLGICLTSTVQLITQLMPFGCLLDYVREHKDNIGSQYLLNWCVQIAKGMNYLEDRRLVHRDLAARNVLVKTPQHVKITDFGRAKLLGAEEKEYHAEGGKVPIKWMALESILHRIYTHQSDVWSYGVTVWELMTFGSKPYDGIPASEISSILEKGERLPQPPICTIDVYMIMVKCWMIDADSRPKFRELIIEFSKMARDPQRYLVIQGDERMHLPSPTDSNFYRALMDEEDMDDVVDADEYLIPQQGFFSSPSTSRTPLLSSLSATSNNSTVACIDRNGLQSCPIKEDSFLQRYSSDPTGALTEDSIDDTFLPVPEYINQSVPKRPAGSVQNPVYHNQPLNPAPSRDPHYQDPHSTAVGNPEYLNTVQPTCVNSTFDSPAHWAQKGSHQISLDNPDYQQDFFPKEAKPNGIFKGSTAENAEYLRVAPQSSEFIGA

In general, IC50 refers to the concentration at which inhibition is half-maximal. As for `C=CC(=O)N1CCC[C@H]1c1ccc(N2C[C@H](CS(C)(=O)=O)[C@H]2C)c2cnc(Nc3ccnc(N4CC[C@@H](OC)[C@@H](F)C4)n3)cc12` [Example 2, 1-[(2S)-2-[3-({2-[(3S,4R)-3-fluoro-4-methoxypiperidin-1-yl]pyrimidin-4-yl}amino)-8-[(2R,3S)-3-(methanesulfonylmethyl)-2-methylazetidin-1-yl]isoquinolin-5-yl]pyrrolidin-1-yl]prop-2-en-1-one], the IC50 on EGFR L858R worked out at 100 nM; in test [1], 2.3 nM.

As to `C=CC(=O)N1CCC[C@@H]1c1ccc(N2C[C@H](CS(C)(=O)=O)[C@H]2C)c2cnc(Nc3ccnc(N4CC[C@@H](OC)[C@@H](F)C4)n3)cc12` [Example 3, 1-[(2R)-2-[3-({2-[(3S,4R)-3-fluoro-4-methoxypiperidin-1-yl]pyrimidin-4-yl}amino)-8-[(2R,3S)-3-(methanesulfonylmethyl)-2-methylazetidin-1-yl]isoquinolin-5-yl]pyrrolidin-1-yl]prop-2-en-1-one], the IC50 was 1.5 nM on EGFR L858R; 0.29 nM at EGFR L858R T790M; 0.88 nM at EGFR d746-750 T790M; 0.69 nM at EGFR (L858R T790M C797S); 0.15 nM in test [1].
